Each molecule was assayed on IFNα-induced STAT phosphorylation (pSTAT5) in human whole blood (assay: IFNα-Induced STAT Phosphorylation in Human Whole Blood). Settings: 1 h incubation with compound, 1000 U/mL recombinant human IFNα A/D for 15 min, pSTAT5 in CD3 positive population, read-out: IFNα-Induced Stat Phosph. (IC50).
Type: cell-based
Method: IFNα-Induced STAT Phosphorylation in Human Whole Blood
After an hour long incubation with compound, human whole blood (drawn with either EDTA or ACD-A as anti-coagulant) was stimulated with 1000 U/mL recombinant human IFNα A/D (R&D Systems 11200-2) for 15 min. The stimulation was stopped by adding Fix/Lyse buffer (BD 558049). Cells were stained with a CD3 FITC antibody (BD 555916), washed, and permeabilized on ice using Perm III buffer (BD 558050). Cells were then stained with an Alexa-Fluor 647 pSTAT5 (pY694) antibody (BD 612599) for 30 min prior to analysis on the FACS Canto II. The amount of pSTAT5 expression was quantitated by median fluorescence intensity after gating on the CD3 positive population.

SMILES | IC50 [nM]
CNC(=O)c1nnc(NC(=O)C2CC(F)C2)cc1Nc1ncccc1S(C)(=O)=O (single isomer, unassigned) [Example 125] | 272
CNC(=O)c1nnc(NC(=O)C2CC(F)C2)cc1Nc1ncccc1S(C)(=O)=O (single isomer, unassigned) [Example 126] | 343
CNC(=O)c1nnc(Nc2ccc(OC)cn2)cc1Nc1ncccc1S(C)(=O)=O [Example 2] | 26
CNC(=O)c1nnc(NC(=O)C2CCC2)cc1Nc1ncccc1S(C)(=O)=O [Example 9] | 77
CNC(=O)c1nnc(Nc2ccc(C3CC3)nn2)cc1Nc1ncccc1S(C)(=O)=O [Example 15] | 13
CNC(=O)c1nnc(Nc2ccc(F)nc2)cc1Nc1ncccc1S(C)(=O)=O [Example 16] | 1430
CNC(=O)c1nnc(Nc2cc(C)n(C)n2)cc1Nc1ncccc1S(C)(=O)=O [Example 17] | 18
CNC(=O)c1nnc(Nc2ccc(C(F)(F)F)nn2)cc1Nc1ncccc1S(C)(=O)=O [Example 19] | 44
CNC(=O)c1nnc(Nc2ccn(CC(F)F)n2)cc1Nc1ncccc1S(C)(=O)=O [Example 20] | 47
CNC(=O)c1nnc(Nc2ccnc(OC)n2)cc1Nc1ncccc1S(C)(=O)=O [Example 21] | 37
CNC(=O)c1nnc(NC2CC2)cc1Nc1ncccc1S(C)(=O)=O [Example 23] | 2140
CNC(=O)c1nnc(Nc2ccc(C(C)(C)N)cn2)cc1Nc1ncccc1S(C)(=O)=O [Example 24] | 9
CNC(=O)c1nnc(Nc2ccc(C(C)(C)NC(C)=O)cn2)cc1Nc1ncccc1S(C)(=O)=O [Example 25] | 15
CNC(=O)c1nnc(Nc2cc(C(F)(F)F)ncn2)cc1Nc1ncccc1S(C)(=O)=O [Example 27] | 88
CNC(=O)c1nnc(Nc2cc(C(C)(C)O)c(Cl)cn2)cc1Nc1ncccc1S(C)(=O)=O [Example 29] | 92
CNC(=O)c1nnc(Nc2cc(N(C)C)ncn2)cc1Nc1ncccc1S(C)(=O)=O [Example 34] | 115
CNC(=O)c1nnc(Nc2cc(N3CCC3)ncn2)cc1Nc1ncccc1S(C)(=O)=O [Example 35] | 90
CNC(=O)c1nnc(NC(=O)[C@H]2C[C@@H]2C)cc1Nc1ncccc1S(C)(=O)=O [Example 49] | 58
CNC(=O)c1nnc(Nc2cc(C(F)(F)F)c(C(=O)N(C)C3CC3)cn2)cc1Nc1ncccc1S(C)(=O)=O [Example 52] | 92
CNC(=O)c1nnc(Nc2cn(C)nn2)cc1Nc1ncccc1S(C)(=O)=O [Example 53] | 132
CCCn1cc(Nc2cc(Nc3ncccc3S(C)(=O)=O)c(C(=O)NC)nn2)nn1 [Example 57] | 59
CNC(=O)c1nnc(Nc2cc(C3CC3)c(C#N)cn2)cc1Nc1ncccc1S(C)(=O)=O [Example 59] | 219
CNC(=O)c1nnc(Nc2ccc(OCCOC)nn2)cc1Nc1ncccc1S(C)(=O)=O [Example 64] | 79
CNC(=O)c1nnc(Nc2ccc(C(C)(C)NC(=O)CN)nn2)cc1Nc1ncccc1S(C)(=O)=O [Example 65] | 193
CNC(=O)c1nnc(NC(=O)C2Cc3ccccc32)cc1Nc1ncccc1S(C)(=O)=O (stereo not drawn) [Example 66] | 1240
CNC(=O)c1nnc(Nc2ccc(C(C)(C)OC(=O)CN)cn2)cc1Nc1ncccc1S(C)(=O)=O [Example 67] | 3580
CNC(=O)c1nnc(Nc2cc(C(C)(C)NC(C)=O)ccn2)cc1Nc1ncccc1S(C)(=O)=O [Example 70] | 1100
CNC(=O)c1nnc(Nc2cc(C(C)(C)N(C)C)ccn2)cc1Nc1ncccc1S(C)(=O)=O [Example 73] | 76
CNC(=O)c1nnc(Nc2ccc(OCC(C)(C)O)cn2)cc1Nc1ncccc1S(C)(=O)=O [Example 77] | 398

The next lines start with the values.

IC50 [nM] | SMILES
57 | CNC(=O)c1nnc(Nc2cc3ccc(C(C)(C)O)cc3cn2)cc1Nc1ncccc1S(C)(=O)=O [Example 30]
53 | CNC(=O)c1nnc(NC(=O)[C@@H]2C[C@H]2C)cc1Nc1ncccc1S(C)(=O)=O [Example 46]
49 | CCC(=O)Nc1cc(Nc2ncccc2S(C)(=O)=O)c(C(=O)NC)nn1 [Example 8]
49 | CNC(=O)c1nnc(Nc2ccn(CC(F)(F)F)n2)cc1Nc1ncccc1S(C)(=O)=O [Example 26]
48 | CNC(=O)c1nnc(NC(=O)C2CC23CC3)cc1Nc1ncccc1S(C)(=O)=O (stereo not drawn) [Example 47]
42 | CNC(=O)c1nnc(Nc2ccc(OC)nn2)cc1Nc1ncccc1S(C)(=O)=O [Example 7]
40 | CNC(=O)c1nnc(NC(=O)[C@@H]2C[C@@H]2C)cc1Nc1ncccc1S(C)(=O)=O [Example 48]
40 | CNC(=O)c1nnc(Nc2ccc(C(C)(C)NC(=O)OC(C)C)cn2)cc1Nc1ncccc1S(C)(=O)=O [Example 78]
38 | CNC(=O)c1nnc(Nc2cc(C#N)n(C)n2)cc1Nc1ncccc1S(C)(=O)=O [Example 12]
34 | CNC(=O)c1nnc(NC(=O)C2CC2(F)F)cc1Nc1ncccc1S(C)(=O)=O (stereo not drawn) [Example 45]
32 | CNC(=O)c1nnc(Nc2cc(F)ccn2)cc1Nc1ncccc1S(C)(=O)=O [Example 4]
31 | CNC(=O)c1nnc(Nc2cc(C(C)(C)O)c(F)cn2)cc1Nc1ncccc1S(C)(=O)=O [Example 22]
31 | CNC(=O)c1nnc(Nc2cc(C(F)(F)F)c(C(C)(C)O)cn2)cc1Nc1ncccc1S(C)(=O)=O [Example 31]
30 | CNC(=O)c1nnc(Nc2cc(C(F)(F)F)c(C(=O)N(C)C)cn2)cc1Nc1ncccc1S(C)(=O)=O [Example 50]
29 | CNC(=O)c1nnc(Nc2cnn(C)n2)cc1Nc1ncccc1S(C)(=O)=O [Example 51]
28 | CNC(=O)c1nnc(Nc2ccc(OC)nn2)cc1Nc1ncccc1S(C)(=O)=O [Example 28]
26 | CNC(=O)c1nnc(Nc2cnc(C3CC3)cn2)cc1Nc1ncccc1S(C)(=O)=O [Example 37]
26 | CNC(=O)c1nnc(NC(=O)[C@@H]2C[C@H]2F)cc1Nc1ncccc1S(C)(=O)=O [Example 43]
24 | CNC(=O)c1nnc(Nc2cc(C3CC3)nc(COC)n2)cc1Nc1ncccc1S(C)(=O)=O [Example 41]

IC50 [nM] | SMILES
24 | CNC(=O)c1nnc(Nc2cc(C)on2)cc1Nc1ncccc1S(C)(=O)=O [Example 58]
23 | CNC(=O)c1nnc(Nc2cc(C(C)(C)NC(C)C)ccn2)cc1Nc1ncccc1S(C)(=O)=O [Example 72]
22 | CNC(=O)c1nnc(Nc2cc(OC)c(C(C)(C)O)cn2)cc1Nc1ncccc1S(C)(=O)=O [Example 36]
21 | CNC(=O)c1nnc(Nc2ccc(C)cn2)cc1Nc1ncccc1S(C)(=O)=O [Example 10]
20 | CNC(=O)c1nnc(Nc2ccc(C(C)(C)N3CCCC3=O)cn2)cc1Nc1ncccc1S(C)(=O)=O [Example 76]
18 | CNC(=O)c1nnc(Nc2ccc(C3(C#N)CC3)cn2)cc1Nc1ncccc1S(C)(=O)=O [Example 33]
18 | CNC(=O)c1nnc(Nc2ccc(N(C)C)nn2)cc1Nc1ncccc1S(C)(=O)=O [Example 38]
18 | CNC(=O)c1nnc(Nc2ccnc(C3CC3)n2)cc1Nc1ncccc1S(C)(=O)=O [Example 40]
18 | CNC(=O)c1nnc(Nc2cn(C3CC3)nn2)cc1Nc1ncccc1S(C)(=O)=O [Example 56]
18 | CNC(=O)c1nnc(Nc2cc(C)nc(C3CC3)n2)cc1Nc1ncccc1S(C)(=O)=O [Example 61]
18 | CNC(=O)c1nnc(Nc2ccc(C(C)(C)N3CCOC3=O)cn2)cc1Nc1ncccc1S(C)(=O)=O [Example 75]
15 | CCc1cnc(Nc2cc(Nc3ncccc3S(C)(=O)=O)c(C(=O)NC)nn2)cn1 [Example 39]
15 | CNC(=O)c1nnc(Nc2cnc(COC)cn2)cc1Nc1ncccc1S(C)(=O)=O [Example 42]
14 | CNC(=O)c1nnc(NC(=O)[C@@H]2C[C@@H]2F)cc1Nc1ncccc1S(C)(=O)=O [Example 44]
13 | CNC(=O)c1nnc(Nc2cccc(F)n2)cc1Nc1ncccc1S(C)(=O)=O [Example 5]
13 | CNC(=O)c1nnc(Nc2ccc(OC3CCOC3)nn2)cc1Nc1ncccc1S(C)(=O)=O (stereo not drawn) [Example 63]
11 | CNC(=O)c1nnc(Nc2cc(C3CC3)ncn2)cc1Nc1ncccc1S(C)(=O)=O [Example 14]
4 | CNC(=O)c1nnc(Nc2ccc(C(C)(C)NC(=O)OC)cn2)cc1Nc1ncccc1S(C)(=O)=O [Example 74]

Same assay, conditions: Homo sapiens, 1 h incubation with compound, 1000 U/mL recombinant human IFNα A/D for 15 min, pSTAT5 in CD3 positive population, read-out: IFNα-Induced Stat Phosph. (IC50)

SMILES | IC50 [nM]
[2H]C([2H])([2H])NC(=O)c1nnc(Nc2ccc(F)cn2)cc1Nc1ncccc1S(C)(=O)=O [Example 1, 6-((5-fluoropyridin-2-yl)amino)-N-(methyl-d3)-4-((3-(methylsulfonyl)pyridin-2-yl)amino)pyridazine-3-carboxamide] | 12
[2H]C([2H])([2H])NC(=O)c1nnc(Nc2ccc(C(C)(C)O)cn2)cc1Nc1ncccc1S(C)(=O)=O [Example 13, 6-((5-(2-hydroxypropan-2-yl)pyridin-2-yl)amino)-N-(methyl-d3)-4-((3-(methylsulfonyl)pyridin-2-yl)amino)pyridazine-3-carboxamide] | 2
[2H]C([2H])([2H])NC(=O)c1nnc(Nc2ccc(CNC(C)=O)cn2)cc1Nc1ncccc1S(C)(=O)=O [Example 69, 6-((5-(acetamidomethyl)pyridin-2-yl)amino)-N-(methyl-d3)-4-((3-(methylsulfonyl)pyridin-2-yl)amino)pyridazine-3-carboxamide] | 12
